Data from paper PMC9785969, “Synthesis, Biological Evaluation, and Molecular Dynamics of Carbothioamides Derivatives as Carbonic Anhydrase II and 15-Lipoxygenase Inhibitors” (Molecules, 2022).
Entries after “also recorded” stand apart in the source; their conditions may differ. Where two headings read alike, the source gives them in different places.

How the values were obtained:
[1] = molecular target: bovine carbonic anhydrase II (b-CA II) (Bos taurus, UniProt P00921); assay: Carbonic anhydrase (b-CA II) inhibition assay, p-nitrophenyl acetate hydrolysis; type: biochemical; settings: for selectivity for b-CA II over 15-LOX: b-CA II vs 15-LOX
Chain of bovine carbonic anhydrase II (b-CA II) (P00921 whole entry): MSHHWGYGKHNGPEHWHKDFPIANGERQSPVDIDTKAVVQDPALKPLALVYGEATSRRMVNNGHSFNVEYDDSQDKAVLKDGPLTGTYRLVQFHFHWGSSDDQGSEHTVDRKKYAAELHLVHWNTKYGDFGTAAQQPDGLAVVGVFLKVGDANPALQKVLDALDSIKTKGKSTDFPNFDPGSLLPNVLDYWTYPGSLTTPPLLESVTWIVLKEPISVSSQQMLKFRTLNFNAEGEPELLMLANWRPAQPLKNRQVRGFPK
Procedure: Carbonic anhydrase (b-CA II) inhibition activity was determined according to the previously reported protocol. IC50 values were calculated through GraphPad PRISM 5.0 Software Inc., San Diego, CA, USA.
This method is based on the spectrophotometric determination of hydrolytic product of substrate p-nitrophenyl acetate substrate. Assay volume was kept at 100 µL, comprised of 60 µL of Tris-sulfate buffer (50 mM, 0.1 mM ZnCl2 at pH 7.6), 10 µL of test compound with concentration of 50 µM and 10 µL (50 U) of b-CA II. The reaction mixture was incubated at 25 °C for 10 min and […]
Reaction was initiated by addition of 20 µL of p-nitrophenyl acetate (6mM) as substrate and incubated for further 30 min. […]
test compounds. All experiments were performed in triplicate and dose response curves were […]
(1 picture or pasted object on this page, not shown here)

15-lipoxygenase (15-LOX) = molecular target: T1, 15-lipoxygenase (15-LOX) (Glycine max, UniProt P08170); assay: Lipoxygenase (15-LOX) inhibition assay, linoleic acid substrate, absorbance 234 nm; type: biochemical; settings: for IC50: mean of three experiments, read-out: 15-LOX IC50 ± SEM; for inhibition at 100 µM: final concentration of 100 μM
T1 sequence (P08170 1-839): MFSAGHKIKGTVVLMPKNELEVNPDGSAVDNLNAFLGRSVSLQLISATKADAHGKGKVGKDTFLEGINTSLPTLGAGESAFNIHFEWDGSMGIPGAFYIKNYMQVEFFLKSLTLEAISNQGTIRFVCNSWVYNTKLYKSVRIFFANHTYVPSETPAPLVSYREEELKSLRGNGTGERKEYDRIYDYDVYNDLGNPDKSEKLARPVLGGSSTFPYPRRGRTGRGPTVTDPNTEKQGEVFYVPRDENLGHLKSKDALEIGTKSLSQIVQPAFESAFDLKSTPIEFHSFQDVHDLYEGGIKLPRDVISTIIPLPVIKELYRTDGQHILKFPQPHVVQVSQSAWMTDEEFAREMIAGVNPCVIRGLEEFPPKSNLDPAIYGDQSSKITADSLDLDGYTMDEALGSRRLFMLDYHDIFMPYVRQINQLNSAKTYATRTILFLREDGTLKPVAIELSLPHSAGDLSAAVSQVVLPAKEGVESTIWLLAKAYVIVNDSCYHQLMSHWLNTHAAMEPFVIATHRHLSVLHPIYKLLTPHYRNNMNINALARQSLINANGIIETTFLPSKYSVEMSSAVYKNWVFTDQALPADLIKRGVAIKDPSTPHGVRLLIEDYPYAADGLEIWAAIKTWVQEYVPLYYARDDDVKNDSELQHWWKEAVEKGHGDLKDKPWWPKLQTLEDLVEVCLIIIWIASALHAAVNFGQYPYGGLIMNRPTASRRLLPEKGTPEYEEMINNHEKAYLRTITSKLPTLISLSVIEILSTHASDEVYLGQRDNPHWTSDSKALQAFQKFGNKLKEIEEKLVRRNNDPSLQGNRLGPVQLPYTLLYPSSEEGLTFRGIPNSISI
Procedure: The lipoxygenase activity was determined with the some modifications to the reported method. The compounds were first screened at 0.1 mM. Assay buffer was made containing 100 mM KH2PO4 and the pH was adjusted at 8.0. Initially, 145 µL of assay buffer was added in each well of a 96-well plate, followed by the addition of 10 µL of 15-LOX enzyme (42.5 units/well). Then, 20 µL of test compound was added in each well and incubated for 10 min at 25 °C. Absorbance was measured at 234 nm by multimode micro-plate reader, FLUOstar Omega, Germany as a pre-read value. Further reaction was carried out by adding of 25 µL of substrate linoleic acid and incubation for 10 min at 25 °C. After incubation, absorbance was calculated again at 234 nm as after read. […] The IC50 values for all experiments were determined using a nonlinear curve fitting tool and all experiments were carried out in triplicate format in GraphPad PRISM 5.0 (GraphPad, San Diego, CA, USA).

[2] = mean of three experiments, read-out: b-CA II IC50 ± SEM

SMILES	IC50 [1, 2] [nM]	melting point [°C]	IC50 (15-lipoxygenase (15-LOX)) [nM]	selectivity for b-CA II over 15-LOX [1]	inhibition at 100 µM (15-lipoxygenase (15-LOX)) [%]	IC50 [1] [nM]	fold higher potential towards b-CA II compared with standard inhibitor acetazolamide ([1]; vs acetazolamide)
COc1cc2cc(OC)c(OC)c(/C=N/NC(N)=S)c2cc1OC [3a]	310 ± 10	240	370 ± 20	–	–	–	–
C#CCN(C)c1ccc(/C=N/NC(N)=S)cc1 [3b]	4970 ± 160	245	–	selective towards b-CA II; also recorded: selective inhibitors of CA II	< 50	–	–
NC(=S)N/N=C/c1ccccc1F [3c]	2020 ± 120	–	160 ± 10	–	–	–	–
NC(=S)N/N=C/c1cc([N+](=O)[O-])ccc1Cl [3d]	280 ± 10	248	–	selective towards b-CA II; also recorded: selective inhibitors of CA II	< 50	–	–
COc1ccc(/C=N/NC(N)=S)cc1O [3e]	380 ± 20	–	1340 ± 140	–	–	–	–
NC(=S)N/N=C/c1ccc(Br)s1 [3f]	10200 ± 210	243	820 ± 190	–	–	–	–
NC(=S)N/N=C/c1c(F)cccc1Cl [3g]	840 ± 50	–	–	selective towards b-CA II; also recorded: selective inhibitors of CA II	< 50	–	–
NC(=S)N/N=C/c1cccc(F)c1 [3h]	–	–	140 ± 10	–	–	130 ± 10	≈ 7 fold
